Results from the supplement of paper PMC10132981, “Formate overflow drives toxic folate trapping in MTHFD1 inhibited cancer cells” (Nature Metabolism, 2023).

Tested on: SW620
Assay: cell viability relative to lowest-dose well (resazurin, 96 h); higher = more viable
Conditions: RPMI + 10% FBS
Outline: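 HCT116 (500 cells/well) or SW620 (1,000 cells/well) cells were seeded in 50 µl RPMI with 10% FBS plus a metabolite supplement in 384-well plates. Compounds were dispensed from 10 mM DMSO stocks as dilution series, and plates were incubated 96 h at 37 °C, 5% CO2. Viability was read as resazurin (10 µg ml^−1) conversion to resorufin after 5 h, by fluorescence at 595 nm. Values are percent of the lowest-dose well, with independent replicate cultures. Viability was read by resazurin-to-resorufin conversion and normalised to the lowest-dose vehicle well (=100%).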

O=c1[nH]cc(F)c(=O)[nH]1 [5-fluorouracil]
cell viability [%]
Conditions	metabolite supplement: 50uM thymidine	metabolite supplement: 50uM thymidine + 250uM hypoxanthine	metabolite supplement: 250uM hypoxanthine	metabolite supplement: vehicle
0.0001 M	6.17	8.1	8.23	7.07
0.001 µM	100	100	100	100
0.01 µM	103	99.7	103	104
0.0278 µM	99.6	99.4	102	101
0.0774 µM	97.9	101	98	102
0.215 µM	94.8	99.9	99.2	100
0.599 µM	93.3	97.1	101	99.9
1.67 µM	77.5	87.9	92	84.1
4.64 µM	52.2	65.6	66.7	56.8
12.9 µM	26.5	37	38.5	30.8
35.9 µM	11.9	16	16.8	13.2

Cc1[nH]nc2c1C(c1cc(CO)cc(-c3ccccc3)c1)(C(C)C)C(C#N)=C(N)O2 (stereo not given) [SHIN1]
cell viability [%]
Conditions	metabolite supplement: 1mM sodium formate	metabolite supplement: 50uM thymidine	metabolite supplement: 50uM thymidine + 1mM sodium formate	metabolite supplement: 50uM thymidine + 250uM hypoxanthine	metabolite supplement: 250uM hypoxanthine	metabolite supplement: vehicle
0.001 µM	100	100	100	100	100	100
0.01 µM	99.57	98.9	102	103	102	100
0.0233 µM	98.7	99.2	102	103	96.7	95
0.0541 µM	98.5	102	104	103	101	98.63
0.126 µM	97.4	102	104	103	101	97.1
0.293 µM	96.93	99.6	101	105	98.8	95
0.682 µM	95.3	96	103	104	98.8	88.6
1.59 µM	94.8	85.5	100	108	98.8	82.9
3.69 µM	92.3	75	98.1	104	96.4	72.3
8.6 µM	89.6	69.3	95.2	102	93.9	68
20 µM	78.2	66.5	83.8	90.8	84.8	66
